# Test results published in US20230413825A1, “SHORT AND LONG TERM DIS[…] ALCOHOL AND ZINC PYRITHIONE” (CAO Group, Inc., priority 2020, published 2023).
# Where two headings read alike, the source gives them in different places.
# From the text: The present invention also utilizes the salts of pyrithione, especially the zinc salt.
substance,measurement,setting,value
Zinc pyrithione,solubility,in solution in an admixture of alcohols and water,about 60 ppm
same,solubility,in water,about 8 ppm
